The assay concerns the target T1, EGFR_L858R/T790M/C797S (Homo sapiens, UniProt P00533, C797S/L858R/T790M).
T1 construct: Reaction Biology Corporation (contract assay provider)
The experiment in a line: In vitro biochemical kinase assay (33P-ATP filter-binding, Reaction Biology). Here is the method:
The biochemical kinase assay was performed at Reaction Biology Corporation (www.reactionbiology.com, Malvern, Pa.) following procedures described in the reference (Anastassiadis, T, et al, Nature Biotechnology, 2011, 29, 1039). Base Reaction buffer includes 20 mM Hepes (pH 7.5), 10 mM MgCl2, 1 mM EGTA, 0.02% Brij35, 0.02 mg/ml BSA, 0.1 mM Na3VO4, 2 mM DTT and 1% DMSO. Required cofactors are added individually to each kinase reaction. Testing compounds were dissolved in 100% DMSO to specific concentration. The serial dilution was conducted by Integra Viaflo Assist in DMSO. Compounds in 100% DMSO are into the kinase reaction mixture by Acoustic technology (Echo550; nanoliter range), incubate for 20 min at room temperature, followed by ^33P-ATP and incubation for 2 hours at room temperature. Radioactivity was then detected by filter-binding method. Kinase activity data were expressed as the percent remaining kinase activity in test samples compared to vehicle (dimethyl sulfoxide) reactions. IC50 values and curve fits were obtained using Prism (GraphPad Software).
T1 sequence (P00533 25-1210 T790M/C797S/L858R): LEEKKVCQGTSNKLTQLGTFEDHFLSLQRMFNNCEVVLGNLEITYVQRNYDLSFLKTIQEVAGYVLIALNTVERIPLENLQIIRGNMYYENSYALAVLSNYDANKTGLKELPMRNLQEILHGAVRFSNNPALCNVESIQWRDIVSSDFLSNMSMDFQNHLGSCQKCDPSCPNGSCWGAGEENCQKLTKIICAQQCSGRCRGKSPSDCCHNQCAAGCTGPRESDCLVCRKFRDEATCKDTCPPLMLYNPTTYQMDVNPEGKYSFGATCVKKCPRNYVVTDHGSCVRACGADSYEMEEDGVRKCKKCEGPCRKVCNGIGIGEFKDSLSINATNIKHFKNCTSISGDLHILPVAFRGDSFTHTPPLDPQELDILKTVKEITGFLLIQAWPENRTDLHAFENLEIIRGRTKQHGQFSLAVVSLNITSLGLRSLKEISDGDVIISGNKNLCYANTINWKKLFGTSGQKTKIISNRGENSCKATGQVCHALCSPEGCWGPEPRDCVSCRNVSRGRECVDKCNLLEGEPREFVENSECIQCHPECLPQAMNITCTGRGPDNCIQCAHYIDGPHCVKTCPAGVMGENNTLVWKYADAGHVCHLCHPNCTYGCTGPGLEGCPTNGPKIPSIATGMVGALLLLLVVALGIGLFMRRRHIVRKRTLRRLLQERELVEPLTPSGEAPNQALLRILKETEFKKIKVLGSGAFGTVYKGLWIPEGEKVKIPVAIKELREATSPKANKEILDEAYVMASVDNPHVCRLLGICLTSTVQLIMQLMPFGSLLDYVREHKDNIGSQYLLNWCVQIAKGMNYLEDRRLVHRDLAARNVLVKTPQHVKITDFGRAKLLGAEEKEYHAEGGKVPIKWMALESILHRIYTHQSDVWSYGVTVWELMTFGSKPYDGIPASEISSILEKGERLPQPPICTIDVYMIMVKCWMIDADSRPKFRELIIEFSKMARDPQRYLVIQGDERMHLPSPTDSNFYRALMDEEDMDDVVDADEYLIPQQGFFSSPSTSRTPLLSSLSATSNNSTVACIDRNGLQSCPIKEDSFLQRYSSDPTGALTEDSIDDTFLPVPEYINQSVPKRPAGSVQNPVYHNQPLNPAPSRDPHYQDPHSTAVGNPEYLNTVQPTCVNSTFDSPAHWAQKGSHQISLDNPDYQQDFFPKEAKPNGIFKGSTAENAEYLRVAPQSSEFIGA
Broadly, the IC50 is the concentration needed to halve the response being measured. In turn, `COc1cc(N(C)CCN(C)C)c2cc1Nc1ncc(Cl)c(n1)Nc1ccc(cc1N(C)S(C)(=O)=O)OCCC2` [Compound A7, N-(3^5-chloro-1^4-((2-(dimethylamino)ethyl)(methyl)amino)-1^6-methoxy-6-oxa-2,4-diaza-3(2,4)-pyrimidina-1(1,3),5(1,4)-dibenzenacyclononaphane-5^2-yl)-N-methylmethanesulfonamide] returned a half-maximal inhibitory concentration (IC50) of 3760 nM.

`COc1cc(N2CCN(C)CC2)c2cc1Nc1ncc(F)c(n1)Nc1ccc(cc1N(C)S(C)(=O)=O)OCCCCC2` [Compound A11, N-(3^5-fluoro-1^6-methoxy-1^4-(4-methylpiperazin-1-yl)-6-oxa-2,4-diaza-3(2,4)-pyrimidina-1(1,3),5(1,4)-dibenzenacycloundecaphane-5^2-yl)-N-methylmethanesulfonamide] displayed an IC50 of 17 nM.

Turning to `COc1cc(N2CCN(C)CC2)c2cc1Nc1ncc(Br)c(n1)Nc1ccc(cc1N(C)S(C)(=O)=O)OCCCCC2` [Compound A12, N-(3^5-bromo-1^6-methoxy-1^4-(4-methylpiperazin-1-yl)-6-oxa-2,4-diaza-3(2,4)-pyrimidina-1(1,3),5(1,4)-dibenzenacycloundecaphane-5^2-yl)-N-methylmethanesulfonamide], the half-inhibitory concentration (IC50) came to 0.6 nM.

The compound `COc1cc(N2CCC(N3CCN(C)CC3)CC2)c2cc1Nc1ncc(Br)c(n1)Nc1ccc(cc1N(C)S(C)(=O)=O)CCC(=O)NCCC2` [Compound A41, N-(3^5-bromo-1^6-methoxy-1^4-(4-(4-methylpiperazin-1-yl)piperidin-1-yl)-8-oxo-2,4,9-triaza-3(2,4)-pyrimidina-1(1,3),5(1,4)-dibenzenacyclododecaphane-5^2-yl)-N-methylmethanesulfonamide] had an IC50 of 0.4 nM.

As to `COc1cc(N2CCC(N3CCN(C)CC3)CC2)c2cc1Nc1ncc(Cl)c(n1)Nc1ccc(cc1N(C)S(C)(=O)=O)OCCCCC(=O)N2` [Compound A40, N-(3^5-chloro-1^6-methoxy-1^4-(4-(4-methylpiperazin-1-yl)piperidin-1-yl)-11-oxo-6-oxa-2,4,12-triaza-3(2,4)-pyrimidina-1(1,3),5(1,4)-dibenzenacyclododecaphane-5^2-yl)-N-methylmethanesulfonamide], the IC50 came to 4.3 nM.

Consider `CC(C)Oc1cc(N2CCN(C)CC2)c2cc1Nc1ncc(Cl)c(n1)Nc1ccc(cc1N(C)S(C)(=O)=O)OCCCCC2` [Compound A22, N-(3^5-chloro-1^6-isopropoxy-1^4-(4-methylpiperazin-1-yl)-6-oxa-2,4-diaza-3(2,4)-pyrimidina-1(1,3),5(1,4)-dibenzenacycloundecaphane-5^2-yl)-N-methylmethanesulfonamide], for which the IC50 came out at 503 nM.

As to `COc1cc(N2CCC(N3CCN(C)CC3)CC2)c2cc1Nc1ncc(Br)c(n1)Nc1ccc(cc1N(C)S(C)(=O)=O)CCCNC(=O)CC2` [Compound A42], the IC50 was 3.8 nM.

The compound `COc1cc(N2CCN(C)CC2)c2cc1Nc1ncc(Cl)c(n1)Nc1ccc(cc1S(C)(=O)=O)OCCCC2` [Compound A6, 3^5-chloro-1^6-methoxy-1^4-(4-methylpiperazin-1-yl)-5^2-(methylsulfonyl)-6-oxa-2,4-diaza-3(2,4)-pyrimidina-1(1,3),5(1,4)-dibenzenacyclodecaphane] yielded an IC50 of 10000 nM.

In the case of `COc1cc(N2CCC(N3CCN(C)CC3)CC2)c2cc1Nc1ncc(Cl)c(n1)Nc1ccc(cc1S(C)(=O)=O)OCCCCCC2` [Compound A19, 3^5-chloro-1^6-methoxy-1^4-(4-(4-methylpiperazin-1-yl)piperidin-1-yl)-5^2-(methylsulfonyl)-6-oxa-2,4-diaza-3(2,4)-pyrimidina-1(1,3),5(1,4)-dibenzenacyclododecaphane], the 50% inhibitory concentration (IC50) turned out to be 180 nM.

`COc1cc(N2CCC3(CC2)CN(C)C3)c2cc1Nc1ncc(Br)c(n1)Nc1ccc(cc1N(C)S(C)(=O)=O)OCCCCC2` [Compound A38, N-(3^5-bromo-1^6-methoxy-1^4-(2-methyl-2,7-diazaspiro[3.5]nonan-7-yl)-6-oxa-2,4-diaza-3(2,4)-pyrimidina-1(1,3),5(1,4)-dibenzenacycloundecaphane-5^2-yl)-N-methylmethanesulfonamide]: the IC50 came out at 0.3 nM.

The compound `COc1cc(N2CCC(N3CCC(N(C)C)CC3)CC2)c2cc1Nc1ncc(Br)c(n1)Nc1ccc(cc1N(C)S(C)(=O)=O)OCCCCC2` [Compound A37, N-(3^5-bromo-1^4-(4-(dimethylamino)-[1,4′-bipiperidin]-1′-yl)-1^6-methoxy-6-oxa-2,4-diaza-3(2,4)-pyrimidina-1(1,3),5(1,4)-dibenzenacycloundecaphane-5^2-yl)-N-methylmethanesulfonamide] showed an IC50 of 0.6 nM.

With `COc1cc(N2CCC(N(C)CCN(C)C)CC2)c2cc1Nc1ncc(Br)c(n1)Nc1ccc(cc1N(C)S(C)(=O)=O)OCCCCC2` [Compound A36, N-(3^5-bromo-1^4-(4-((2-(dimethylamino)ethyl)(methyl)amino)piperidin-1-yl)-1^6-methoxy-6-oxa-2,4-diaza-3(2,4)-pyrimidina-1(1,3),5(1,4)-dibenzenacycloundecaphane-5^2-yl)-N-methylmethanesulfonamide], the 50% inhibitory concentration (IC50) was 2.9 nM.

In turn, `COc1cc(N(C)CCN(C)C)c2cc1Nc1ncc(Cl)c(n1)Nc1ccc(cc1N(C)S(C)(=O)=O)OCCCCC2` [Compound A5, N-(3^5-chloro-1^4-((2-(dimethylamino)ethyl)(methyl)amino)-1^6-methoxy-6-oxa-2,4-diaza-3(2,4)-pyrimidina-1(1,3),5(1,4)-dibenzenacycloundecaphane-5^2-yl)-N-methylmethanesulfonamide] registered an IC50 of 27.9 nM.

The compound `COc1cc(N2CCN(C)CC2)c2cc1Nc1ncc(Cl)c(n1)Nc1ccc(cc1NS(C)(=O)=O)OCCCCC2` [Compound A16, N-(3^5-chloro-1^6-methoxy-1^4-(4-methylpiperazin-1-yl)-6-oxa-2,4-diaza-3(2,4)-pyrimidina-1(1,3),5(1,4)-dibenzenacycloundecaphane-5^2-yl)methanesulfonamide] returned a half-maximal inhibitory concentration (IC50) of 20.3 nM.

In turn, `COc1cc(N2CCN(C)CC2)c2cc1Nc1ncc(Cl)c(n1)Nc1ccc(cc1N(C)S(=O)(=O)C(C)C)OCCCCC2` [Compound A17, N-(3^5-chloro-1^6-methoxy-1^4-(4-methylpiperazin-1-yl)-6-oxa-2,4-diaza-3(2,4)-pyrimidina-1(1,3),5(1,4)-dibenzenacycloundecaphane-5^2-yl)-N-methylpropane-2-sulfonamide] had an IC50 of 82.2 nM.

In turn, `CCOc1cc(N2CCN(C)CC2)c2cc1Nc1ncc(Cl)c(n1)Nc1ccc(cc1N(C)S(C)(=O)=O)OCCCCC2` [Compound A21, N-(3^5-chloro-1^6-ethoxy-1^4-(4-methylpiperazin-1-yl)-6-oxa-2,4-diaza-3(2,4)-pyrimidina-1(1,3),5(1,4)-dibenzenacycloundecaphane-5^2-yl)-N-methylmethanesulfonamide] registered an IC50 of 40.5 nM.

As for `COc1cc(N2CCN(C)CC2)c2cc1Nc1ncc(Cl)c(n1)Nc1ccc(cc1C(=O)N(C)C)OCCCCCC2` [Compound A25, 3^5-chloro-1^6-methoxy-N,N-dimethyl-1^4-(4-methylpiperazin-1-yl)-6-oxa-2,4-diaza-3(2,4)-pyrimidina-1(1,3),5(1,4)-dibenzenacyclododecaphane-5^2-carboxamide], the IC50 is 2510 nM.

The values above are taken from patent US20230159556A1, “NOVEL PROTEIN KINASE INHIBITORS” (TENOVA PHARMACEUTICALS INC., priority 2020, published 2023).
